Measured values as given in US20230235279A1, “AMNIOTIC-LIKE EPITHELIAL CELL GENERATION” (THE BABRAHAM INSTITUTE, priority 2020, published 2023).

Legend:
Type in all cases: cell-based, human
[1] = system: hPSC at different stages of capacitation; experiment: Competence window for hALEC differentiation during capacitation (AP or DAP); details: hPSC capacitated 8 days, AP medium plus BMP inhibitor
Source text: FIGS. 4 (A to G). A competence window for hALEC differentiation during the formative transition: FIG. 4(A) depicts the experimental outline. hPSC (HNES1 line) were capacitated in XAV939 and analysed for their ability to form hALEC each day of capacitation, by treatment with AP of DAP for 4 days. […] FIG. 4(D) is a qRT-PCR for markers in hALEC differentiated using AP medium after various length of capacitation. FIG. 4(E) depicts the immunofluorescence for markers (OCT4, CDX2 and E-cadherin) during the time course of hALEC differentiation using naïve and partially capacitated HNES1. […] FIG. 4(G) is the flow cytometry analysis.
To identify a window during the progression from naïve to primed pluripotency where hPSC have the competence to form amnion, we systematically tested the ability of hPSC at different stages of capacitation to respond to hALEC-inducing cues (FIG. 4A). In these experiments, hALEC differentiation was induced using two alternative media compositions – AP and DAP – in order to assess whether the requirement for BMP pathway activity is altered this window of competence. […] The efficiency of hALEC formation was evaluated visually by their efficiency to form 3D epithelial spheres (FIGS. 4B and 4C), and markers expression (FIG. 4D). […]

[2] = system: hPSC after 3-5 days of the capacitation; experiment: Signalling requirement for hALEC formation (single, joint and alternative MAPK, TGFb, BMP inhibitors); details: for induction of hALEC by alternative MAPK or TGFb pathway inhibitor: Trametinib 5, 10 or 30 nM, SB431542 10 or 20 uM, LY2109761 1 or 5 uM, LY364947 5, 10 or 20 uM; for efficient formation of 3D bubble-like epithelial structures and upregulation of amnion markers: A8301 only, PD03 only or both (AP)
Description: (§1) FIGS. 3 (A to I). Signalling requirement for hALEC differentiation: FIG. 3(A) depicts experimental outline; naïve hPSC were capacitated in different conditions for 3 days (2uM XAV939 in N2B27 basal medium (“XAV939”), N2B27 basal medium only (“N2B27”), 1 uM A8301 in N2B27 basal medium (“A8301”), or medium E8 for culturing primed hPSCs (“E8”)), and then differentiated to hALEC in AP media. FIG. 3(B) is whole-well view of cells after hALEC induction stained with fluorescently labelled phalloidin. […] FIGS. 3(F) and (G) show images of cells stained with fluorescently labelled phalloidin and qRT-PCR results, respectively, of hALEC differentiated in the presence of alternative MAPK inhibitors (1 uM PD0325901, or 5 nM, 10 nM or 30 nM Trametinib). FIGS. 3(H) and (I) show images of cells stained with fluorescently labelled phalloidin and qRT-PCR results, respectively, for hALEC differentiated in the presence of alternative TGFb pathway inhibitors (1 uM A8301; 10 or 20 uM SB431542; 1 uM or 5 uM LY2109761; 5 uM or 10uM or 20 uM LY364947).
We next assessed whether the joint inhibition of the TGFb/Activin/Nodal and MAPK pathways is required for the formation of hALEC. We tested this using hPSC after 3-5 days of the capacitation in independent experiments by supplementing their media with either A8301 only (“A”), PD03 only (“P”), neither of the inhibitors (“none”), or both (“AP”).
Therefore, hALEC differentiation is induced specifically by inhibition of MAPK and TGFb pathways and not by other effects of PD0325901 and A8301.
The formation of cells expressing a subset of amnion markers has been previously reported after treating conventional primed hPSC with the growth factor BMP4 (Shao et al. Nat Mater 2017; Shao et al. Nat Commun 2017; Zheng et al. Nature 2019). However, this finding is at odds with the timing of events that occur during embryo development. In particular, primed hPSC closely resemble late post-implantation epiblast cells just prior to the onset of gastrulation (Nakamura et al. Nature 2016), a developmental stage that occurs in humans at around 11-12dpf (Carnegie stage, CS, 5c), which is several days after the emergence of the amnion in the implanting embryo at 7dpf (CS 5a) (The Virtual Human Embryo Atlas). Therefore, BMP-dependent route of differentiation reported in the aforementioned works can’t explain the mechanism of formation of amnion and amniotic cavity in primate embryos. Nevertheless, we tested whether BMP signalling was required for hALEC differentiation by adding a selective BMP receptor (ALK-2, -3, -6) inhibitor called LDN193189 to the AP-containing media (a combination referred to as “DAP” hereafter).

naïve hPSC = experiment: hALEC differentiation in AP after capacitation in different conditions; details: 3 days capacitation in the named condition, then AP; for hALEC differentiation after capacitation condition: morphology and markers
Description: as §1
WNT inhibition is beneficial but not essential for the formative transition of hPSC, which is rather guided by their autocrine signalling (Rostovskaya et al. Development 2019). We induced formative transition by the range of conditions: (1) WNT inhibitor XAV939 in N2B27 basal medium; (2) simple withdrawal of the factors (PD0325901, Go6983, XAV939, LIF) for naïve hPSC maintenance from the medium and culturing in basal N2B27 conditions; (3) TGFb inhibitor A8301 in N2B27 basal medium; (4) E8 medium containing TGFb and FGF2 for culturing primed hPSC (Chen et al. Nat Methods 2011); all for 3 days, and then applied AP conditions for differentiation (FIG. 3A). […] Therefore, the ability to form hALEC capable of self-assembly into spheroids, is an intrinsic property of hPSC that is established during capacitation, rather than a property that is acquired in response to exogenous WNT inhibition.

COc1cc(-c2cc(-c3cccc(O)c3)cnc2N)cc(OC)c1OC [K02288]
extension of the window of competence by alternative BMP inhibitor [1]: extension of the window of competence was observed

NC(=O)c1ccc(-c2nc(-c3ccc4c(c3)OCO4)c(-c3ccccn3)[nH]2)cc1 [SB431542]
induction of hALEC by alternative MAPK or TGFb pathway inhibitor [2]: successful induction of hALEC

c1ccc2c(-c3cnn4cc(-c5ccc(N6CCNCC6)cc5)cnc34)ccnc2c1 [LDN193189]
effect of blocking BMP signalling on hALEC differentiation ([2]; added to AP-containing media (DAP)): did not interfere with hALEC differentiation

Cc1cccc(-c2nn(C(=S)Nc3ccccc3)cc2-c2ccnc3ccccc23)n1 [A8301]
efficiency of hALEC differentiation after capacitation condition (naïve hPSC): consistently high
hALEC differentiation after capacitation condition (naïve hPSC): successfully differentiated to hALEC
efficient formation of 3D bubble-like epithelial structures and upregulation of amnion markers [2]: Only the cells treated by both inhibitors were able to efficiently form

Oc1nc(-c2ccc(C(F)(F)F)cc2)nc2c1CSCC2 [XAV939]
efficiency of hALEC differentiation after capacitation condition (naïve hPSC): consistently high
hALEC differentiation after capacitation condition (naïve hPSC): successfully differentiated to hALEC

c1ccc(-c2[nH]ncc2-c2ccnc3ccccc23)nc1 [LY364947]
induction of hALEC by alternative MAPK or TGFb pathway inhibitor [2]: successful induction of hALEC

O=C(NOC[C@H](O)CO)c1ccc(F)c(F)c1Nc1ccc(I)cc1F [PD03]
efficient formation of 3D bubble-like epithelial structures and upregulation of amnion markers [2]: Only the cells treated by both inhibitors were able to efficiently form

c1ccc(-c2nn3c(c2-c2ccnc4cc(OCCN5CCOCC5)ccc24)CCC3)nc1 [LY2109761]
induction of hALEC by alternative MAPK or TGFb pathway inhibitor [2]: successful induction of hALEC
